Earlier results as cited in patent US11351128B1, “Pharmaceutical compositions and methods of administration” (priority 2021, dated 2022).

soluble in water to the extent of: about 20 mg in 100 ml
Structure (SMILES): CCN(CC)C(=S)SSC(=S)N(CC)CC [Disulfiram, tetraethyldisulfane-carbothioamide or 1-(diethylthiocarbamoyl-disulfanyl)-N,N-diethyl-methanethioamide]
